The values that follow come from patent US9120094B2, “Polymerization of bis[3-(diethoxyphosphoryl)propyl]diallylammonium chloride” (King Fahd University of Petroleum and Minerals, priority 2013, dated 2015).

The nature of series [1]: Potentiometric titration for protonation (basicity) constants. In kind it is physicochemical. The following applies: monomer, 0.0175M NaCl at 23° C. The text has this: Procedure for the determination of the protonation constants (K1, K2 and K3) of the polyzwitterion/trianion (PZTAN) 10 (Z^±≡) and K1, K2 and K4 of its corresponding monomer ZTAN 15 (Z^±≡) by potentiometric titrations, carried out in an atmosphere of N2 in CO2-free water, is described elsewhere (Al-Muallem, H. A.; Wazeer M. I. M.; Ali, S. A. Polymer, 2002, 43, 4285—incorporated herein by reference in its entirety). A certain mmol of PZA 7 (ZH3^±) or 11 (ZH4^+) in 200 cm^3 of 0.0175 M NaCl was used in each trial (Tables 3 and 4). As the polymer was insoluble in salt-free water, it (≈100 mg) was first dissolved in 1 M NaCl (3.5 mL) and then diluted to 200 mL to make the polymer solution in 0.0175 M NaCl. For the sake of comparison the NaCl strength of water-soluble monomer 11 was also kept at 0.0175 M.
The Log K1, Log K2 and Log K3 of the respective protonation of ^2−O3P—X^+—PO3^2− [in (±≡) PZTAN 10], ^2O3P—X^+—PO3H^− [in (±=) (PZDAN) 9] and ^−HO3P—X^+—PO3H^− [(in (±−) plyzwitterion/anion (PZAN) 8] were calculated at each pH value by the Henderson-Hasselbalch eq 2 (Scheme 2) where the degree of protonation (α) is the ratios [ZH^±=]eq/[Z]o, [ZH2^±−]eq/[Z]o and [ZH3^±]eq/[Z]o, respectively. The [ZH^±=]eq, [ZH2^±−]eq and [ZH3^±]eq represent the respective equilibrium concentrations of the first (9), second (8) and third protonated species (7) whereas [Z]o describes the initial concentration of repeating units.
For the determination of the third step [8 (ZH2^±−)+H^+⇄7 (ZH3^±)] protonation constant (log K3) using the titration of PZA 7 [ZH3^±] with NaOH, α represents the ratio [ZH3^±]eq/[Z]o whereby [Z]o and [ZH3^±]eq are related by [ZH3^±]eq=[Z]o—COH^−—[H^+]+[OH^−], where COH^− represent the added NaOH concentration. The equilibrium [H^+] and [OH^−] values were calculated from the pH value. Continuing the titration, the second step [9 (ZH^±=)+H^+⇄8 (ZH2^±−)] protonation constant (log K2) was determined using volume of the titrant after deducting the equivalent volume from the total volume. […]

A short description of series [2]: Solubility behavior of polymers in solvents. In kind it is physicochemical. The following applies: water (salt-free). On the procedure:
After stirring a mixture of PZ 5 or PZA 7 (2 w/w %) in a solvent at 70° C. […] Table II is presented below.

With `C=CC[N+](CC=C)(CCCP(=O)([O-])[O-])CCCP(=O)([O-])[O-].[Na+].[Na+].[Na+]` [compound 15], in series [1] (fourth step 12 (ZH3±) to 11 (ZH4+), approximate, 2[Z]o used), the “Log Ki^o (log K4)” value stood at 2.30. Besides, in series [1] (second step protonation), the “Log Ki^o (log K2)” value came to 7.43. The “Log Ki^o (log K1)” value in series [1] (titration of 11 (ZH4+) with NaOH, first step protonation of 15) was determined as 9.78.
`C=CC[N+](CC=C)(CCCP(=O)(O)O)CCCP(=O)(O)O.[Cl-]` [compound 11]: the Solubility in words entry in series [2] is listed as “water-soluble”.
